Measurements reported in patent publication US8592564B2, “Immunoassays for lamotrigine” (Seradyn, Inc., priority 2004, dated 2013).

Test system: anti-lamotrigine antibody
Experiment: Cross-reactivity of polyclonal antibody with lamotrigine metabolites
Format: binding
Settings: 500 μg/mL spiked into human serum
Description: A polyclonal antisera is obtained and an assay is performed in order to determine the amount of cross-reactivity of the polyclonal antibody with lamotrigine and lamotrigine metabolites. A known amount of lamotrigine is used to react with an anti-lamotrigine antibody prepared in accordance with the present invention. The known concentration of lamotrigine is used to calculate the amount of cross-reactivity between the antibody preparation and the metabolites as follows: N-methyl (29); N-oxide (30); and N-2 gluronide (31). The percent of cross-reactivity equals 100 times the observed concentration of lamotrigine in μg/mL, which is then divided by the concentration of added metabolites in μg/mL. No cross-reactivity is observed in specimens containing those metabolites. High concentrations of these compounds are spiked into human serum and tested as samples. The metabolites are assayed and compared to control serum (no lamotrigine). Cross reactivity is calculated using the following equation: […]
Also, the cross-reactivity of N-2 oxide at 500 μg/mL is less then 3%.

Row | Compound | cross-reactivity
1 | Nc1nc(N)[n+]([O-])nc1-c1cccc(Cl)c1Cl [N-2 oxide] | < 3%
2 | C[n+]1nc(-c2cccc(Cl)c2Cl)c(N)nc1N [N-2 methyl] | do not have any cross-reactivity
